According to PubChem BioAssay (NCI):
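Where inhibition never reached the appropriate level, the endpoint shown equals the highest concentration tested. Otherwise, values were interpolated linearly from a five-concentration, 48-hour dose response in 96-well plates. TGI marks complete inhibition of growth.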

What was measured:
Assay in all cases: NCI-60 cell line screen, 48 h
[1] = tested on: U251 CNS
[2] = tested on: EKVX NSCLC
[3] = tested on: OVCAR-4 ovarian
[4] = tested on: SK-MEL-28 melanoma
[5] = tested on: HOP-92 NSCLC
[6] = tested on: SR leukemia
[7] = tested on: UO-31 renal
[8] = tested on: IGROV1 ovarian
[9] = tested on: SF-539 CNS
[10] = tested on: SK-MEL-2 melanoma
[11] = tested on: COLO 205 colon
[12] = tested on: KM20L2 colon
[13] = tested on: RXF 393 renal
[14] = tested on: SNB-19 CNS
[15] = tested on: MALME-3M melanoma
[16] = tested on: NCI-H226 lung
[17] = tested on: NCI-H522 lung
[18] = tested on: HCT-15 colon
[19] = tested on: HOP-62 NSCLC
[20] = tested on: UACC-62 melanoma
[21] = tested on: A549 NSCLC
[22] = tested on: HCT-116 colon
[23] = tested on: NCI-H23 lung
[24] = tested on: SF-295 CNS
[25] = tested on: CCRF-CEM leukemia
[26] = tested on: MOLT-4 leukemia
[27] = tested on: OVCAR-8 ovarian
[28] = tested on: SF-268 CNS
[29] = tested on: UACC-257 melanoma
[30] = tested on: K-562 leukemia
[31] = tested on: SW-620 colon
[32] = tested on: SNB-75 CNS
[33] = tested on: XF 498 CNS
[34] = tested on: SK-MEL-5 melanoma
[35] = tested on: 786-0 renal
[36] = tested on: KM12 colon
[37] = tested on: LXFL 529 NSCLC
[38] = tested on: HOP-18 NSCLC
[39] = tested on: A498 renal
[40] = tested on: HCC-2998 colon
[41] = tested on: DLD-1 colon
[42] = tested on: OVCAR-5 ovarian
[43] = tested on: TK-10 renal
[44] = tested on: LOX IMVI melanoma
[45] = tested on: HL-60(TB) leukemia
[46] = tested on: NCI-H460 lung
[47] = tested on: ACHN renal
[48] = tested on: SN12C renal
[49] = tested on: CAKI-1 renal
[50] = tested on: DMS 273 small cell lung
[51] = tested on: M14 melanoma
[52] = tested on: SK-OV-3 ovarian
[53] = tested on: OVCAR-3 ovarian
[54] = tested on: M19-MEL melanoma
[55] = tested on: SNB-78 CNS
[56] = tested on: RPMI-8226 leukemia
[57] = tested on: HT29 colon
[58] = tested on: DMS 114 small cell lung

Cc1cc([N+](=O)[O-])ccc1Sc1c2ccccc2nc2ccccc12
TGI [1]: 78.9 µM | TGI [2]: > 100 µM | TGI [3]: > 100 µM | TGI [4]: > 100 µM | TGI [5]: 98.2 µM | TGI [6]: 70.1 µM | TGI [7]: > 100 µM | TGI [8]: > 100 µM | TGI [9]: 56.5 µM | TGI [10]: 55.9 µM | TGI [11]: > 100 µM | TGI [12]: 89.8 µM | TGI [13]: > 100 µM | TGI [14]: > 100 µM | TGI [15]: > 100 µM | TGI [16]: > 100 µM | TGI [17]: 38.9 µM | TGI [18]: 57.2 µM | TGI [19]: > 100 µM | TGI [20]: 66.8 µM | TGI [21]: > 100 µM | TGI [22]: 66.6 µM | TGI [23]: 79.2 µM | TGI [24]: > 100 µM | TGI [25]: 79.5 µM | TGI [26]: 73.1 µM | TGI [27]: 84.4 µM | TGI [28]: > 100 µM | TGI [29]: 71.3 µM | TGI [30]: > 100 µM | TGI [31]: > 100 µM | TGI [32]: > 100 µM | TGI [33]: 50 µM | TGI [34]: > 100 µM | TGI [35]: 55.5 µM | TGI [36]: 32.7 µM | TGI [37]: 45.5 µM | TGI [38]: > 100 µM | TGI [39]: > 100 µM | TGI [40]: 56.1 µM | TGI [41]: > 100 µM | TGI [42]: > 100 µM | TGI [43]: > 100 µM | TGI [44]: 38.6 µM | TGI [45]: 49.1 µM | TGI [46]: > 100 µM | TGI [47]: > 100 µM | TGI [48]: 93.3 µM | TGI [49]: 97.3 µM | TGI [50]: > 100 µM | TGI [51]: > 100 µM | TGI [52]: > 100 µM | TGI [53]: > 100 µM

O=C(Nc1ccc(Cl)c(Cl)c1)C(=O)C(C(=O)c1ccccc1F)C1OC(=O)c2ccccc21 (configuration not stated)
TGI [1]: 28.1 µM | TGI [2]: 68.6 µM | TGI [3]: > 100 µM | TGI [4]: 75.2 µM | TGI [5]: > 100 µM | TGI [6]: > 100 µM | TGI [7]: 37.2 µM | TGI [8]: > 100 µM | TGI [9]: 28.1 µM | TGI [10]: 38.2 µM | TGI [11]: 33.1 µM | TGI [12]: 55.1 µM | TGI [13]: 41.8 µM | TGI [14]: 47.8 µM | TGI [54]: 41.7 µM | TGI [55]: 73.1 µM | TGI [16]: 43.7 µM | TGI [56]: 55.9 µM | TGI [17]: 27.3 µM | TGI [18]: 35.5 µM | TGI [19]: 76.2 µM | TGI [20]: 28.3 µM | TGI [21]: 81.4 µM | TGI [22]: 30.4 µM | TGI [23]: 75.9 µM | TGI [24]: > 100 µM | TGI [25]: 50.9 µM | TGI [26]: > 100 µM | TGI [27]: 28.5 µM | TGI [28]: 92.1 µM | TGI [29]: > 100 µM | TGI [30]: > 100 µM | TGI [31]: 62.3 µM | TGI [32]: 58.8 µM | TGI [33]: 79.5 µM | TGI [34]: 35.9 µM | TGI [36]: 37 µM | TGI [37]: > 100 µM | TGI [39]: > 100 µM | TGI [40]: 32.7 µM | TGI [41]: > 100 µM | TGI [42]: > 100 µM | TGI [43]: 93.8 µM | TGI [44]: 50.4 µM | TGI [45]: 41.2 µM | TGI [46]: 43.8 µM | TGI [57]: 88.8 µM | TGI [47]: > 100 µM | TGI [48]: 60.2 µM | TGI [49]: 80.2 µM | TGI [50]: 46.9 µM | TGI [58]: 46.4 µM | TGI [51]: 34.3 µM | TGI [52]: 69.9 µM
